Like-named read-outs stand apart in the source and are kept apart here.
Key:
S. epidermidis = experiment: Anti-Microbial Test 2: in vitro growth inhibition by chelators (optical density at 600 nm); format: cell-based, Staphylococcus epidermidis (axillary isolate); conditions: chelator 5×10^−5 mol.dm^−3 in semi-synthetic medium pH 6.7, 16 hours at 37° C., relative to control medium
Description: The chelators indicated in Table 4 were subjected to the following in vitro test for anti-microbial activity against Staphylococcus Epidermididis.
An axillary isolate of S. epidermidis was grown overnight in 100 ml of tryptone soy broth (TSB, ex Oxoid Ltd.). 10 ml of this culture was taken and subjected to centrifugation. The separated cells were re-suspended in 10 ml of phosphate-buffered saline and the centrifugation procedure repeated. The washed cells were re-suspended in 10 ml of phosphate-buffered saline to give the inoculum.
100 ml of semi-synthetic medium (SSM) [containing (NH4)2SO4 (0.066 g), MgSO4.7H2O (0.012 g), KCl (0.1 g), KH2PO4 (0.27 g), Na2HPO4 (1.43 g), Thiamin (0.1 mg), Biotin (0.05 mg), Peptone P (0.05 g), Glucose (2.0 mmole)] was sterilised by autoclaving at 121° C. for 20 minutes. After sterilisation, the pH was adjusted to 6.7 with HCl to give the control medium. The chelator-containing test media were prepared in a similar manner, the chelator being introduced at a concentration of 5×10^−5 mol.dm^−3, before the pH adjustment with HCl.
100 μl of the inoculum was introduced into each of the test media and the control medium. The cultures were incubated at 37° C. (with agitation at 200 rpm) for 16 hours. After this time, the optical density of the cultures were measured at 600 nm to determine the extent of bacterial growth. By comparing the optical density of the culture in the presence of chelating agent to that of the control, the percentage inhibition of growth was established for each of the chelators. (Optical density measurements were made on 1 in 4 dilutions of the cultures with 0.9% (w/v) saline, using 1 cm path length cuvettes, on a Pharmacia Biotech Ultrospec 200 Spectrophotometer.)

[1] = cited from earlier work; for Log10K (iron (III) binding constant): fully deprotonated chelator, independent of pH
[2] = system: Staphylococcus epidermidis; conditions: cited from earlier work
[3] = literature values, 80% or greater reduction in growth over 16 to 24 hours at 37° C.

Structure (SMILES) | Inhibition of growth (%) (S. epidermidis) | Log10K (iron (III) binding constant) [1] | iron (III) binding constant ([1]; Critical Stability Constants, Martell and Smith, 1974) | MIC [2, 3] | MIC ([2]; stated by contrast, no source given)
O=C(O)CN(CC(=O)O)CC(=O)O [NTA, Nitrilotriacetic acid, reference compound] | 6% | 15.9 | – | – | –
O=C(O)CC(NCCNC(CC(=O)O)C(=O)O)C(=O)O (mixture of isomers) [EDDS, N,N-ethylenediaminedisuccinic acid, reference compound] | 18% | 22.0 | 10^22 | – | –
O=C(O)CN(CCN(CCN(CC(=O)O)CC(=O)O)CC(=O)O)CCN(CC(=O)O)CC(=O)O [TTHA, triethylenetetraaminehexaacetic acid] | >70% | 26.8 | – | – | –
O=C(O)C(NCCNC(C(=O)O)c1ccccc1O)c1ccccc1O (centres unmarked) [EDDHA, N,N′-ethylenebis[2-(2-hydroxyphenyl)glycine]] | >70% | 35.5 | – | – | –
Oc1cc(Cl)ccc1Oc1ccc(Cl)cc1Cl [triclosan, 2′,4,4′-trichloro,2-hydroxy-diphenyl ether] | – | – | – | 0.01 to 10 µg/mL | –
O=C(O)CN(CCN(CC(=O)O)CC(=O)O)CCN(CC(=O)O)CC(=O)O [DTPA, diethylenetriaminepentaacetic acid] | >70% | 28.6 | – | – | –
O=C(O)CN(CC(=O)O)[C@@H]1CCCC[C@H]1N(CC(=O)O)CC(=O)O (relative stereo) [CDTA, trans-1,2-diaminocyclohexane-N, N,N′,N′-tetraacetic acid] | >70% | 28.05 | – | – | –
CC(C)=CCCC(C)=CCCC(C)=CCO [farnesol, 3,7,11-trimethyldodeca-2,6,10-trienol] | – | – | – | ca. 25 μg.ml^−1 | –
O=C(O)CN(CCN(CC(=O)O)CC(=O)O)CC(=O)O [EDTA, ethylenediaminetetraacetic acid] | >70% | 25.1 | – | – | –
O=C(O)CN(CCOCCOCCN(CC(=O)O)CC(=O)O)CC(=O)O [EGTA, Ethyleneglycol-O,O′-bis-(2-aminoethyl)-N,N,N′,N′-tetraacetic acid, reference compound] | 21% | 20.5 | – | – | –
CCO [ethanol] | – | – | – | – | greater than 1 mg.ml^−1

From patent US6793914B2, “Anti-microbial compositions” (Unilever Home & Personal Care USA, division of Conopco, Inc., priority 2000, dated 2004)
